# Source: patent publication US20090304625A1, “MODULATORS OF CARDIAC CELL HYPERTROPHY AND HYPERPLASIA” (priority 2006, published 2009)
# How the values were obtained:
# [1] = tested on: human umbilical vein endothelial cells; conditions: in culture, cited from earlier work
# [2] = tested on: tumor cells grown in culture; conditions: cited from earlier work
# [3] = tested on: subcutaneous xenograft tumors; conditions: cited from earlier work; for growth of tumor cells grown as subcutaneous xenografts: athymic mice
# tumor angiogenesis = conditions: mouse tumor xenograft models; cited from earlier work
# mast cells (MCs) = assay: Mast cell density in LV of WT mice treated with cromolyn; assay type: in vivo, mouse; conditions: cromolyn 60 mg/kg/day
# Description: (§1) Induction of pressure overload: At eight weeks of age, WT or Kit^w/Kit^w-v mice were subjected to suprarenal aortic constriction (SAC) to induce hypertension and, thus, pressure overload, or to sham operation, as previously described (M. Li et al. (2004)). One group (both SAC and sham-operated animals) was allowed to recover from surgery for 2 days and animals surviving this peri-operative period were then followed for survival over the next 28 days. A second group were sacrificed at 3, 7 or 14 days after SAC, and a third group was treated with the mast cell stabilizer, sodium chromoglycate (60 mg/kg/day, intraperitoneal, osmotic minipump) for one week before and then for the 7 days after surgery, at which time they were sacrificed.
# c-kit+ CSCs = assay: c-kit+ cardiac stem cell numbers in LV of 7-day-SAC WT mice; assay type: in vivo, mouse; conditions: cromolyn 60 mg/kg/day started 7 days before SAC, n=5
# Description: as §1, with “sacrificed. […] There are several different but overlapping types of CSCs, which are grouped according to cell surface markers, e.g., ckit+, Sca1+, MDR1+, isl1+, e-kit+ CSCs differentiated into cardiomyocytes contributing to repair of a damaged heart. […] In the W/W^v- and WT-SAC LV myocardium, c-kit^+ CSCs occurred individually, in pairs or in large clusters. c-kit^+ CSC clusters were not seen in the LVs of WT- or […] were rare in WT-SAC mice. Compared to sham controls, 7 days of SAC increased c-kit^+ CSCs 19-fold in the […]<0.001; FIG. 6A). Compared to the WT-SAC LV, the increase was 5.5-fold (P<0.01; FIG. 6A). […]” for “sacrificed.”
Compound,VEGF-induced proliferation of human umbilical vein endothelial cells ([1]; VEGF-induced),growth of tumor cells grown in culture [2],growth of tumor cells grown as subcutaneous xenografts [3],tumor angiogenesis in vivo (tumor angiogenesis),VEGF- and FGF-induced proliferation of human umbilical vein endothelial cells ([1]; VEGF- and FGF-induced),regression of established xenograft tumors ([3]; mice),reduction of MC density (mast cells (MCs)),MC density (mast cells (MCs); n=4),c-kit+ CSCs (c-kit+ CSCs)
Cc1cc(C)c(/C=C2\C(=O)Nc3ccccc32)[nH]1 [SU5416],inhibits,neither compound potently inhibits,inhibit the growth,inhibit tumor angiogenesis in vivo,,,,,
Cc1[nH]c(/C=C2\C(=O)Nc3ccccc32)c(C)c1CCC(=O)O [SU6668],,neither compound potently inhibits,inhibit the growth,inhibit tumor angiogenesis in vivo,inhibits,causes regression,,,
"O=C(O)c1cc(=O)c2c(OCC(O)COc3cccc4oc(C(=O)O)cc(=O)c34)cccc2o1 [cromolyn, sodium chromoglycate]",,,,,,,approximately 80%,0.45±0.2 MCs/mm^2,38±3 CSCs/mm^2
